Target: T1, PPARG (peroxisome proliferator activated receptor-gamma), GST-PPARG-LBD (Homo sapiens, UniProt P37231)
T1 construct: 15 μL of 5 nM GST-PPARG-LBD and 5 nM Tb-GST-antibody were added; purchased Invitrogen PV4894
T1 sequence (P37231 238-503 limits assumed): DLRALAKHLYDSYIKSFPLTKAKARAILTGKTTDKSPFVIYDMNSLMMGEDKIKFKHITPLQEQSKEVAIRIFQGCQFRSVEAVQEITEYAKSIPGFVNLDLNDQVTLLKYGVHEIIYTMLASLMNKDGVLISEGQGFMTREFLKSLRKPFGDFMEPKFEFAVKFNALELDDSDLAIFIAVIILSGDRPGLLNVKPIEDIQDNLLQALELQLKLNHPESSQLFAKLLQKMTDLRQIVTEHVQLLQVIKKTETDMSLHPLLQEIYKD
Experiment: LanthaScreen TR-FRET PPARG Competitive Binding Assay
Design: key: “+” indicates the degree of the binding activity, and as the number of “+” increases, the binding activity is stronger; ++: “+” indicates the degree of the binding activity, and as the number of “+” increases, the binding activity is stronger; +++: “+” indicates the degree of the binding activity, and as the number of “+” increases, the binding activity is stronger; ++++: “+” indicates the degree of the binding activity, and as the number of “+” increases, the binding activity is stronger
Conditions: degree of binding activity
Outline: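 Ratio of 518 nm to 488 nm time-resolved emission after a 1 h room-temperature incubation, in competition format with GST-PPARG ligand-binding domain. Values are expressed as 100% minus compound-to-vehicle ratio and related to rosiglitazone binding.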

SMILES	Binding assay (1 μLM)
O=C(NCCc1ccccc1)c1ccc2c(c1)OCCN2Cc1ccc(-c2ccccc2C(=O)O)cc1 [Example 68, 4′-((7-(phenethylcarbamoyl)-2H-benzo[b][1,4]oxazine-4(3H)-yl)methyl)-[1,1′-biphenyl]-2-carboxylic acid]	++
O=C(NCc1ccco1)c1ccc2c(c1)OCCN2Cc1ccc(-c2ccccc2C(=O)O)cc1 [Example 69, 4′-((7-((furan-2-ylmethyl)carbamoyl)-2H-benzo[b][1,4]oxazine-4(3H)-yl)methyl)-[1,1′-biphenyl]-2-carboxylic acid-A]	+
C[C@H](NC(=O)c1ccc2c(c1)OCCN2Cc1ccc(-c2ccccc2C(=O)O)cc1)c1cccc2ccccc12 [Example 70, (S)-4′-((7-((1-(naphthalene-1-yl)ethyl)carbamoyl)-2H-benzo[b][1,4]oxazine-4(3H)-yl)methyl)-[1,1′-biphenyl]-2-carboxylic acid]	++
COC(=O)c1ccc(CNC(=O)c2ccc3c(c2)OCCN3Cc2ccc(-c3ccccc3C(=O)O)cc2)cc1 [Example 71, 4′-((7-((4-(methoxycarbonyl)benzyl)carbamoyl)-2H-benzo[b][1,4]oxazine-4(3H)-yl)methyl)-[1,1′-biphenyl]-2-carboxylic acid]	+
COc1cccc(CNC(=O)c2ccc3c(c2)OCCN3Cc2ccc(-c3ccccc3C(=O)O)cc2)c1 [Example 72, 4′-((7-((3-methoxybenzyl)carbamoyl)-2H-benzo[b][1,4]oxazine-4(3H)-yl)methyl)-[1,1′-biphenyl]-2-carboxylic acid]	+
O=C(NCc1ccc(Br)cc1)c1ccc2c(c1)OCCN2Cc1ccc(-c2ccccc2C(=O)O)cc1 [Example 73, 4′-((7-((4-bromobenzyl)carbamoyl)-2H-benzo[b][1,4]oxazine-4(3H)-yl)methyl)-[1,1′-biphenyl]-2-carboxylic acid]	+
C[C@H](NC(=O)c1ccc2c(c1)OCCN2Cc1ccc(-c2ccccc2C(=O)O)cc1)c1ccc(OC(F)(F)F)cc1 [Example 75, (S)-4′-((7-((1-(4-(trifluoromethoxy)phenyl)ethyl)carbamoyl)-2H-benzo[b][1,4]oxazine-4(3H)-yl)methyl)-[1,1′-biphenyl]-2-carboxylic acid]	+++
C[C@H](NC(=O)c1ccc2c(c1)OCCN2Cc1ccc(-c2ccccc2C(=O)O)cc1)c1ccc(C(F)(F)F)cc1 [Example 76, (S)-4′-((7-((1-(4-(trifluoromethyl)phenyl)ethyl)carbamoyl)-2H-benzo[b][1,4]oxazine-4(3H)-yl)methyl)-[1,1′-biphenyl]-2-carboxylic acid]	+++
C[C@H](NC(=O)c1ccc2c(c1)OCCN2Cc1ccc(-c2ccccc2C(=O)O)cc1)c1ccc(SC(F)(F)F)cc1 [Example 77, (S)-4′-((7-((1-(4-((trifluoromethyl)thio)phenyl)ethyl)carbamoyl)-2H-benzo[b][1,4]oxazine-4(3H)-yl)methyl)-[1,1′-biphenyl]-2-carboxylic acid]	+++
C[C@H](NC(=O)c1ccc2c(c1)OCCN2Cc1ccc(-c2ccccc2C(=O)O)cc1)c1ccc(C(C)(C)C)cc1 [Example 78, (S)-4′-((7-((1-(4-(tert-butyl)phenyl)ethyl)carbamoyl)-2H-benzo[b][1,4]oxazine-4(3H)-yl)methyl)-[1,1′-biphenyl]-2-carboxylic acid]	++
Cc1cc(F)ccc1[C@H](C)NC(=O)c1ccc2c(c1)OCCN2Cc1ccc(-c2ccccc2C(=O)O)cc1 [Example 79, (S)-4′-((7-((1-(4-fluoro-2-methylphenyl)ethyl)carbamoyl)-2H-benzo[b][1,4]oxazine-4(3H)-yl)methyl)-[1,1′-biphenyl]-2-carboxylic acid]	++
Cc1ccc([C@H](C)NC(=O)c2ccc3c(c2)OCCN3Cc2ccc(-c3ccccc3C(=O)O)cc2)cc1F [Example 80, (S)-4′-((7-((1-(3-fluoro-4-methylphenyl)ethyl)carbamoyl)-2H-benzo[b][1,4]oxazine-4(3H)-yl)methyl)-[1,1′-biphenyl]-2-carboxylic acid]	++
C[C@@H](NC(=O)c1ccc2c(c1)OCCN2Cc1ccc(-c2ccccc2C(=O)O)cc1)c1ccc(C#N)cc1 [Example 81, (R)-4′-((7-((1-(4-cyanophenyl)ethyl)carbamoyl)-2H-benzo[b][1,4]oxazine-4(3H)-yl)methyl)-[1,1′-biphenyl]-2-carboxylic acid]	+++
O=C(NC1COc2ccccc2C1)c1ccc2c(c1)OCCN2Cc1ccc(-c2ccccc2C(=O)O)cc1 (stereo not shown) [Example 82]	+++
C[C@H](NC(=O)c1ccc2c(c1)OCCN2Cc1ccc(-c2ccccc2C(=O)O)cc1)c1c(F)cccc1F [Example 83, (S)-4′-((7-((1-(2,6-fluorophenyl)ethyl)carbamoyl)-2H-benzo[b][1,4]oxazine-4(3H)-yl)methyl)-[1,1′-biphenyl]-2-carboxylic acid]	++
C[C@H](NC(=O)c1ccc2c(c1)OCCN2Cc1ccc(-c2ccccc2C(=O)O)cc1)c1cccc(F)c1 [Example 84, (S)-4′-((7-((1-(3-fluorophenyl)ethyl)carbamoyl)-2H-benzo[b][1,4]oxazine-4(3H)-yl)methyl)-[1,1′-biphenyl]-2-carboxylic acid]	++
C[C@H](NC(=O)c1ccc2c(c1)OCCN2Cc1ccc(-c2ccccc2C(=O)O)cc1)c1cccc(OC(F)(F)F)c1 [Example 85, (S)-4′-((7-((1-(3-(trifluoromethoxy)phenyl)ethyl)carbamoyl)-2H-benzo[b][1,4]oxazine-4(3H)-yl)methyl)-[1,1′-biphenyl]-2-carboxylic acid]	+++
C[C@H](NC(=O)c1ccc2c(c1)OCCN2Cc1ccc(-c2ccccc2C(=O)O)cc1)c1cccc(C(F)(F)F)c1 [Example 86, (S)-4′-((7-((1-(3-(trifluoromethyl)phenyl)ethyl)carbamoyl)-2H-benzo[b][1,4]oxazine-4(3H)-yl)methyl)-[1,1′-biphenyl]-2-carboxylic acid]	+++
C[C@H](NC(=O)c1ccc2c(c1)OCCN2Cc1ccc(-c2ccccc2C(=O)O)cc1)c1ccc2ccccc2c1 [Example 87, (S)-4′-((7-((1-(naphthalene-2-yl)ethyl)carbamoyl)-2H-benzo[b][1,4]oxazine-4(3H)-yl)methyl)-[1,1′-biphenyl]-2-carboxylic acid]	++++
O=C(NCc1ccccn1)c1ccc2c(c1)OCCN2Cc1ccc(-c2ccccc2C(=O)O)cc1 [Example 88, 4′-((7-((pyridine-2-ylmethyl)carbamoyl)-2H-benzo[b][1,4]oxazine-4(3H)-yl)methyl)-[1,1′-biphenyl]-2-carboxylic acid]	+
O=C(NCc1cccnc1)c1ccc2c(c1)OCCN2Cc1ccc(-c2ccccc2C(=O)O)cc1 [Example 89, 4′-((7-((pyridine-3-ylmethyl)carbamoyl)-2H-benzo[b][1,4]oxazine-4(3H)-yl)methyl)-[1,1′-biphenyl]-2-carboxylic acid]	+
O=C(NCc1ccncc1)c1ccc2c(c1)OCCN2Cc1ccc(-c2ccccc2C(=O)O)cc1 [Example 90, 4′-((7-((pyridine-4-ylmethyl)carbamoyl)-2H-benzo[b][1,4]oxazine-4(3H)-yl)methyl)-[1,1′-biphenyl]-2-carboxylic acid]	+
O=C(NCc1ccccc1)c1ccc2c(c1)OCCN2Cc1ccc(-c2ccccc2C(=O)O)cc1 [Example 91, 4′-((7-(benzylcarbamoyl)-2H-benzo[b][1,4]oxazine-4(3H)-yl)methyl)-[1,1′-biphenyl]-2-carboxylic acid]	+++
O=C(NCc1ccccc1Br)c1ccc2c(c1)OCCN2Cc1ccc(-c2ccccc2C(=O)O)cc1 [Example 92, 4′-((7-((2-bromobenzyl)carbamoyl)-2H-benzo[b][1,4]oxazine-4(3H)-yl)methyl)-[1,1′-biphenyl]-2-carboxylic acid]	+++
O=C(NCc1ccc2c(c1)OCCO2)c1ccc2c(c1)OCCN2Cc1ccc(-c2ccccc2C(=O)O)cc1 [Example 93, 4′-((7-(((2,3-dihydrobenzo[b][1,4]dioxin-6-yl)methyl)carbamoyl)-2H-benzo[b][1,4]oxazine-4(3H)-yl)methyl)-[1,1′-biphenyl]-2-carboxylic acid]	++
C[C@@H](NC(=O)c1ccc2c(c1)OCCN2Cc1ccc(-c2ccccc2C(N)=O)cc1)c1ccc(C#N)cc1 [Example 94, (R)-4-((2′-carbamoyl-[1,1′-biphenyl]-4-yl)methyl)-N-(1-(4-cyanophenyl)ethyl)-3,4-dihydro-2H-benzo[b][1,4]oxazine-7-carboxamide]	++
C[C@H](NC(=O)c1ccc2c(c1)OCCN2Cc1ccc(-c2ccccc2C(N)=O)cc1)c1cccc(F)c1 [Example 95, (S)-4-((2′-carbamoyl-[1,1′-biphenyl]-4-yl)methyl)-N-(1-(3-fluorophenyl)ethyl)-3,4-dihydro-2H-benzo[b][1,4]oxazine-7-carboxamide]	+++
NC(=O)c1ccccc1-c1ccc(CN2CCOc3cc(C(=O)NCc4cccnc4)ccc32)cc1 [Example 97, 4-((2′-carbamoyl-[1,1′-biphenyl]-4-yl)methyl)-N-(pyridine-3-ylmethyl)-3,4-dihydro-2H-benzo[b][1,4]oxazine-7-carboxamide]	+

Reference: US20160355483A1, “COMPOUND BINDING TO PPARG BUT NOT ACTING AS PROMOTER AND PHARMACEUTICAL COMPOSITION FOR TREATING PPARG-RELATED DISEASES CONTAINING SAME AS ACTIVE INGREDIENT” (Hyundai Pharm Co., Ltd., priority 2014, published 2016)
